From the supplement of paper PMC4862054
“And” between values parts separate entries of the source, which are not always exact repeats. Equal entries are not always repeated.

How the values were obtained:
Settings in all cases: incubation time: 72 h
MFM-223 [1] = assay: drug sensitivity score (DSS), CellTox Green (DSS (AUC-based score)); higher = stronger drug effect (viability inhibition or cytotoxicity); extreme values may be limits of the assay
Summary of the method: (§1)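 Using 20 µl of cell suspension per well, breast cancer cell lines were seeded into 384-well plates pre-loaded with compound at 5 concentrations in 10-fold steps across a compound-specific 10,000-fold range. Incubation lasted 72 h, after which CellTox Green fluorescence at 485/520 nm and then CellTiter-Glo luminescence, following 10 min at room temperature, were recorded. Each plate was normalised to 0.1 % DMSO and a positive kill control before the drug sensitivity score was derived from the area under the fitted dose-response curve.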

CAL-120 [2] = assay: as above
Summary of the method: as §1

CAL-148 = assay: normalised viability (% of control), CellTiter-Blue; higher = more viable cells (about 100 = DMSO control)
Method: (§2)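 DSRT, CellTiter-Blue viability, 72 h incubation. Signal is normalised to DMSO and benzethonium chloride controls. Value is the normalised response at dose 3.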

MDA-MB-436 = assay: as above
Method: as §2

MDA-MB-231 = assay: as above
Method: as §2

BT-549 = assay: as above
Method: as §2

HDQ-P1 = assay: as above
Method: as §2

MFM-223 [3] = assay: as above
Method: as §2

CAL-85-1 = assay: as above
Method: as §2

SK-BR-3 = assay: as above
Method: as §2

HCC1937 = assay: as above
Method: as §2

CAL-51 = assay: as above
Method: as §2

HCC1143 = assay: as above
Method: as §2

Hs578T = assay: as above
Method: as §2

HCC1599 = assay: as above
Method: as §2

DU-4475 = assay: as above
Method: as §2

CAL-120 [4] = assay: as above
Method: as §2

MDA-MB-453 = assay: as above
Method: as §2

MDA-MB-468 = assay: as above
Method: as §2

BT-474 = assay: as above
Method: as §2

SMILES | drug sensitivity score (MFM-223 [1]) | drug sensitivity score (CAL-120 [2]) | normalised viability (CAL-148; 10 nM) | normalised viability (MDA-MB-436; 100 nM) | normalised viability (MDA-MB-231; 100 nM) | normalised viability (BT-549; 100 nM) | normalised viability (HDQ-P1; 10 nM) | normalised viability (MFM-223 [3]; 100 nM) | normalised viability (CAL-85-1; 10 nM) | normalised viability (SK-BR-3; 100 nM) | normalised viability (HCC1937; 100 nM) | normalised viability (CAL-51; 10 nM) | normalised viability (HCC1143; 100 nM) | normalised viability (Hs578T; 100 nM) | normalised viability (HCC1599; 100 nM) | normalised viability (DU-4475; 10 nM) | normalised viability (CAL-120 [4]; 100 nM) | normalised viability (MDA-MB-453; 10 nM) | normalised viability (MDA-MB-468; 100 nM) | normalised viability (BT-474; 100 nM) | other results
Cn1cc(C2=C(c3cn(C4CCN(Cc5ccccn5)CC4)c4ccccc34)C(=O)NC2=O)c2ccccc21 [Enzastaurin] | 0 | 0 | 95.3% | 84.9% | 93.5% | 104% | 123% | 92.7% | 96.9% | 69.8% | 86.2% | 108% | 98% | 68.7% | 114% | 123% | 91.6% | 97.5% | 105% | 108% | –
Cc1cn(-c2cc(NC(=O)c3ccc(C)c(Nc4nccc(-c5cccnc5)n4)c3)cc(C(F)(F)F)c2)cn1 [Nilotinib] | 0 | 0 | 89.9% and 90.2% | 100% and 93.8% | 80.4% and 89.5% | 95.6% and 88.2% | 101% and 85.7% | 99.6% and 95.5% | 93.2% and 92.5% | 73.4% and 86.6% | 90.7% and 85.8% | 109% and 111% | 94.3% and 91.8% | 78.3% and 89.4% | 113% and 111% | 98.8% and 104% | 80.1% and 86.2% | 94% and 89% | 95.9% and 102% | 104% and 102% | –
CC1(C)CCC(c2ccc(Cl)cc2)=C(CN2CCN(c3ccc(C(=O)NS(=O)(=O)c4ccc(N[C@H](CCN5CCOCC5)CSc5ccccc5)c(S(=O)(=O)C(F)(F)F)c4)cc3)CC2)C1 [Navitoclax] | 1.23 | 10.9 | 87% | 89.2% | 71.9% | 97.2% | 87.4% | 75.5% | 88.2% | 58.8% | 96.3% | 105% | 75.3% | 78.2% | 93.5% | 86.9% | 61.3% | 84.3% | 84.2% | 97.3% | –
CCN(CC)CCCC(C)Nc1ccnc2cc(Cl)ccc12 (stereo not drawn) [Chloroquine] | 9.2 | 4.62 | – | – | – | – | – | – | – | – | – | – | – | – | – | – | – | – | – | – | normalised viability (CAL-148; 0.99 nM): 85%; normalised viability (MDA-MB-436; 9.9 nM): 117%; normalised viability (MDA-MB-231; 9.9 nM): 107%; normalised viability (BT-549; 9.9 nM): 104%; normalised viability (HDQ-P1; 0.99 nM): 106%; normalised viability (MFM-223 [3]; 9.9 nM): 98.2%; normalised viability (CAL-85-1; 0.99 nM): 94.8%; normalised viability (SK-BR-3; 9.9 nM): 92%; normalised viability (HCC1937; 9.9 nM): 115%; normalised viability (CAL-51; 0.99 nM): 90.3%; normalised viability (HCC1143; 9.9 nM): 87.7%; normalised viability (Hs578T; 9.9 nM): 90.2%; normalised viability (HCC1599; 9.9 nM): 128%; normalised viability (DU-4475; 0.99 nM): 98.2%; normalised viability (CAL-120 [4]; 9.9 nM): 102%; normalised viability (MDA-MB-453; 0.99 nM): 100%; normalised viability (MDA-MB-468; 9.9 nM): 105%; normalised viability (BT-474; 9.9 nM): 104%
CO[C@@H]1[C@H](N(C)C(=O)c2ccccc2)C[C@H]2O[C@]1(C)n1c3ccccc3c3c4c(c5c6ccccc6n2c5c31)C(=O)NC4 [Midostaurin] | 0 | 3.96 | 107% | 85.6% | 103% | 88.1% | 85.3% | 108% | 103% | 102% | 82.8% | 91.9% | 134% | 82.2% | 101% | 103% | 107% | 85.7% | 112% | 114% | –
C=CCN(/C=C1/C(=O)O[C@H](COC)[C@@]2(C)C1=C(O)C(=O)C1=C2[C@H](OC(C)=O)C[C@]2(C)C(=O)CC[C@@H]12)CC=C [PX-866] | – | – | 100% | 102% | 97.8% | 98.4% | 109% | 95.2% | 104% | 78.1% | 99% | 110% | 99.2% | 81% | 112% | 97% | 108% | 99.3% | 90.2% | 118% | –
CO[C@@]12[C@H](COC(N)=O)C3=C(C(=O)C(C)=C(N)C3=O)N1C[C@@H]1N[C@@H]12 [Mitomycin C] | 1.79 | 0 | 101% | 96.5% | 107% | 74.4% | 103% | 89.1% | 104% | 91.9% | 69.2% | 108% | 83.7% | 97.1% | 108% | 103% | 93.8% | 87.6% | 92% | 127% | –
C=CCn1c(=O)c2cnc(Nc3ccc(N4CCN(C)CC4)cc3)nc2n1-c1cccc(C(C)(C)O)n1 [MK1775] | 5.91 | 4.54 | 87.4% | 86.3% | 88.1% | 97.4% | 114% | 83.3% | 81.4% | 62.1% | 78.2% | 94.1% | 94.8% | 83.2% | 99.4% | 109% | 75.8% | 100% | 95.5% | 94.6% | –
Nc1ccn([C@@H]2O[C@H](CO)[C@@H](O)C2(F)F)c(=O)n1 [Gemcitabine] | 0 | 0 | – | – | – | – | – | – | – | – | – | – | – | – | – | – | – | – | – | – | normalised viability (CAL-148; 1 nM): 106%; normalised viability (MDA-MB-436; 10 nM): 94.3%; normalised viability (MDA-MB-231; 10 nM): 77.9%; normalised viability (BT-549; 10 nM): 84%; normalised viability (HDQ-P1; 1 nM): 125%; normalised viability (MFM-223 [3]; 10 nM): 92.6%; normalised viability (CAL-85-1; 1 nM): 93.2%; normalised viability (SK-BR-3; 10 nM): 77.4%; normalised viability (HCC1937; 10 nM): 63.7%; normalised viability (CAL-51; 1 nM): 105%; normalised viability (HCC1143; 10 nM): 70.7%; normalised viability (Hs578T; 10 nM): 82.1%; normalised viability (HCC1599; 10 nM): 88.8%; normalised viability (DU-4475; 1 nM): 116%; normalised viability (CAL-120 [4]; 10 nM): 67.3%; normalised viability (MDA-MB-453; 1 nM): 111%; normalised viability (MDA-MB-468; 10 nM): 68.9%; normalised viability (BT-474; 10 nM): 101%
